Ten compounds from patent publication US20260374739A1, “SMALL MOLECULAR WEIGHT CHEMICAL COMPOUND TO ANTAGONIZE EPH-EPHRIN TETRAMERIZATION AND INHIBIT BIDIRECTIONAL SIGNALING” (THE BOARD OF REGENTS OF THE UNIVERSITY OF TEXAS SYSTEM, priority 2022, published 2026) can be followed below.

The target in experiment [1] is T1, EphrinB2-EphB1 (Homo sapiens, UniProt P54762).
T1 construct: soluble human EphB1-His, EphB2-His, and EphB4-His ectodomains; commercially available human EphrinB1-Fc (EB1), EphrinB2-Fc (EB2), and EphrinB3-Fc (EB3) ectodomain proteins; purchased
T1 sequence (P54762 18-540 limits assumed): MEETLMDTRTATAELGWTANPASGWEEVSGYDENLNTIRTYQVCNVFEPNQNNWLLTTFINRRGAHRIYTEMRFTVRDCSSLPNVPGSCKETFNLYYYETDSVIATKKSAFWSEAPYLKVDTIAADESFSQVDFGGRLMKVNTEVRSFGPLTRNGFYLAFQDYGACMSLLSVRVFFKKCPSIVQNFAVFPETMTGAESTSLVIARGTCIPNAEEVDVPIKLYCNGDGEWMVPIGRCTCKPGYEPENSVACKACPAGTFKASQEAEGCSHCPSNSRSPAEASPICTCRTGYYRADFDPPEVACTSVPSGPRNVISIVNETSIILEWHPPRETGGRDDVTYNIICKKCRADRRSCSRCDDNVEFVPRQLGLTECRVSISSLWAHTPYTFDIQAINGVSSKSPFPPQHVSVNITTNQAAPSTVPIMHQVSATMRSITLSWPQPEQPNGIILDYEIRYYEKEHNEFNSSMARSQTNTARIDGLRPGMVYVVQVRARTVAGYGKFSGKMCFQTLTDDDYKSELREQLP
Briefly: Octet 80 sec association/500 sec dissociation, immobilized human EphrinB2-Fc binding to soluble human EphB1-His. Particulars: for inhibition at 3.2 µM / % Inhibition: Association + Dissociation (160 sec): 25 nM EphB1, 3.2 μM compound, A20-I as max control, 0* = less than 0, no inhibition; for EphB1 Inhibition Percent, Inhibition of Association ONLY: at 3.2 μM and 80 seconds; for EphB1 Inhibition Percent, Inhibition of Association ONLY / EphB1 Inhibition Percent, Inhibition of Association-Dissociation: immobilized human EphrinB2, 25 nM soluble human EphB1; for EphB1 Inhibition Percent, Inhibition of Association-Dissociation: at 3.2 μM and 580 seconds. Put shortly:
(§1)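 EphrinB2-Fc captured on AHC biosensors, then soluble His-tagged EphB ectodomain (25 nM for % inhibition runs) associated 80 s and dissociated 500 s in PBS, 0.05% Tween-20, 1% DMSO ± compound. Compounds tested at 0.1–3.2 μM with a 10 μM max standard; IC50 from AUC of full traces or at 75 s and 135 s.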
(Biolayer interferometry detects binding as a change in optical thickness at a sensor tip.)

Experiment [2] concerns the target T2, EphrinB2-EphB4 (Homo sapiens, UniProt P54760).
T2 construct: soluble human EphB1-His, EphB2-His, and EphB4-His ectodomains; commercially available human EphrinB1-Fc (EB1), EphrinB2-Fc (EB2), and EphrinB3-Fc (EB3) ectodomain proteins; purchased
T2 sequence (P54760 16-539 limits assumed): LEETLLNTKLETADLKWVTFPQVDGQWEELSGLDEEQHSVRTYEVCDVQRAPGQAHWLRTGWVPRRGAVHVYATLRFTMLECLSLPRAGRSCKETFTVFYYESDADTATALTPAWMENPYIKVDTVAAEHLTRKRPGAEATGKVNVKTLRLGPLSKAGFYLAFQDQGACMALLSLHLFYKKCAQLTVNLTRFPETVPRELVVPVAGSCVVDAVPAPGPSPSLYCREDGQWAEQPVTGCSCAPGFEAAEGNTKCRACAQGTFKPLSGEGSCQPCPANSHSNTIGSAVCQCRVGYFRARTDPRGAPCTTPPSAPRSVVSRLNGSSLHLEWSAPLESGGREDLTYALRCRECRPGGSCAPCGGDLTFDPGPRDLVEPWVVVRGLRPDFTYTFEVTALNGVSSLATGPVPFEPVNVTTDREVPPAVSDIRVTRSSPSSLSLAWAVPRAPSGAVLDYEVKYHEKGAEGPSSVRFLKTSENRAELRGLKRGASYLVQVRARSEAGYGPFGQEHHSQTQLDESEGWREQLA
In words: Octet 80 sec association/500 sec dissociation, immobilized human EphrinB2-Fc binding to soluble human EphB4-His. The conditions noted are these: for inhibition at 3.2 µM: 25 nM EphB4, 3.2 μM compound, A20-I as max control, 0* = less than 0, no inhibition; for EphB4 Inhibition Percent, Inhibition of Association ONLY: at 3.2 μM and 80 seconds; for EphB4 Inhibition Percent, Inhibition of Association ONLY / EphB4 Inhibition Percent, Inhibition of Association-Dissociation: immobilized human EphrinB2, 25 nM soluble human EphB4; for EphB4 Inhibition Percent, Inhibition of Association-Dissociation: at 3.2 μM and 580 seconds. Summed up:
as §1

The mark [3] stands for this setting: EphB1, read-out: % Inhibition: Association + Dissociation (160 sec).
Where [4] appears, read: EphB1, read-out: % Inhibition: Association ONLY (80 sec).
[5] abbreviates: EphB4, read-out: % Inhibition: Association + Dissociation (160 sec).
Setting [6] is: EphB4, read-out: % Inhibition: Association ONLY (80 sec).

Values joined by “and” are separate entries in the source; they are usually repeats but may differ in a detail not shown here. Equal entries are not always repeated. “Also recorded” adds a separate entry of the source. Where two headings read alike, the source gives them in different places.

On to `Oc1c(Cl)cc(CN2CCOCC2)c2cccnc12` [Compound 3, 7-chloro-5-(morpholinomethyl)quinolin-8-ol], for which the inhibition at 3.2 µM came to 48.4% in experiment [1] (setting [3]), 34.2% in experiment [1] (setting [4]), 35.5% in experiment [2] (setting [5]) and 16.8% in experiment [2] (setting [6]).
For `Oc1c(Cl)cc(CN2CCOCC2)c2cccnc12` [Compound 4, 4-((7-chloro-8-hydroxyquinolin-1-ium-5-yl)methyl)morpholin-4-ium chloride], in experiment [1], the “EphB1 Inhibition Percent, Inhibition of Association ONLY” value worked out at 34.2% and the “EphB1 Inhibition Percent, Inhibition of Association-Dissociation” value worked out at 48.4%. Also, in experiment [2], the “EphB4 Inhibition Percent, Inhibition of Association ONLY” value turned out to be 16.8% and the “EphB4 Inhibition Percent, Inhibition of Association-Dissociation” value came to 35.5%.
On to `Oc1c(Br)cc(CN2CCOCC2)c2cccnc12` [Compound 5, 7-bromo-5-(morpholinomethyl)quinolin-8-ol], for which the inhibition at 3.2 µM in experiment [1] (setting [3]) came to 45.2%; in experiment [1] (setting [4]) it was 25.1%; in experiment [2] (setting [5]) it was 23%; in experiment [2] (setting [6]), 0%.
`Oc1c(Br)cc(CN2CCOCC2)c2cccnc12` [Compound 6, 4-((7-bromo-8-hydroxyquinolin-1-ium-5-yl)methyl)morpholin-4-ium chloride]: in experiment [1], the “EphB1 Inhibition Percent, Inhibition of Association ONLY” value turned out to be 33.5% and the “EphB1 Inhibition Percent, Inhibition of Association-Dissociation” value worked out at 48.7%. Moreover, in experiment [2], the “EphB4 Inhibition Percent, Inhibition of Association ONLY” value worked out at 20.0% and the “EphB4 Inhibition Percent, Inhibition of Association-Dissociation” value worked out at 35.9%.
Consider `Oc1c(I)cc(CN2CCOCC2)c2cccnc12` [Compound 7, 7-iodo-5-(morpholinomethyl)quinolin-8-ol], for which the “% Inhibited (AUC), Association + Dissociation” value in experiment [1] (EphB1, 0-160 sec, 50 nM, 10 μM compound, Table 4) came out at 38.4%; in experiment [2] (EphB4, 0-160 sec, 50 nM, 10 μM compound, Table 4), 26.5%. Also, the “% Inhibition: Association + Dissociation (160 sec)” value (“% Inhibition … (160 sec)” for short) in experiment [1] (EphB1) is 53.1% and 44.3% and 52.4%. Further, the figures for the inhibition at 3.2 µM in experiment [1] (setting [3]), in experiment [1] (setting [4]) and in experiment [2] (setting [5]) were 46.8%, 29.5% and 32.9%, respectively. Also, the “% Inhibited (AUC), Association” value was 25.0% in experiment [1] (EphB1, 50 nM, 10 μM compound, Table 4) and 13.3% in experiment [2] (EphB4, 50 nM, 10 μM compound, Table 4). The inhibition stood at 36.6% in experiment [1] (EphB1, 10 μM 2×HCl salt, read-out: % Inhibited (AUC), Association); 48.5% in experiment [1] (EphB1, first 160 sec, 10 μM 2×HCl salt, read-out: % Inhibited (AUC), Association + Dissociation); 32.6% in experiment [1] (EphB1, highest dose, typically 3.2 μM, read-out: Association (% Inhibited (AUC))); 49.4% in experiment [1] (EphB1, highest dose, typically 3.2 μM, read-out: Association + Dissociation (% Inhibited (AUC))); 13.9% in experiment [2] (EphB4, 10 μM 2×HCl salt, read-out: % Inhibited (AUC), Association); 33.9% in experiment [2] (EphB4, first 160 sec, 10 μM 2×HCl salt, read-out: % Inhibited (AUC), Association + Dissociation). For the same compound, the inhibition in experiment [2] (EphB4, highest dose, typically 3.2 μM, read-out: Association (% Inhibited (AUC))) worked out at 15.4%; in experiment [2] (EphB4, highest dose, typically 3.2 μM, read-out: Association + Dissociation (% Inhibited (AUC))), 37%. For the same compound, the IC50 was greater than 3200 nM in experiment [1] (EphB1, Association (75″), read-out: Absolute IC50); 850 nM in experiment [1] (EphB1, Association (75″), read-out: Relative IC50); greater than 3200 nM in experiment [1] (EphB1, Association (AUC), read-out: Absolute IC50); 980 nM in experiment [1] (EphB1, Association (AUC), read-out: Relative IC50); 850 nM in experiment [1] (EphB1, Dissociation (135″), read-out: Absolute IC50); 440 nM in experiment [1] (EphB1, Dissociation (135″), read-out: Relative IC50). Moreover, the IC50 was 1480 nM in experiment [1] (EphB1, Full AUC, read-out: Absolute IC50); 240 nM in experiment [1] (EphB1, Full AUC, read-out: Relative IC50); greater than 3200 nM in experiment [2] (EphB4, Association (75″), read-out: Absolute IC50); 1700 nM in experiment [2] (EphB4, Association (75″), read-out: Relative IC50); greater than 3200 nM in experiment [2] (EphB4, Association (AUC), read-out: Absolute IC50); 1660 nM in experiment [2] (EphB4, Association (AUC), read-out: Relative IC50). The IC50 in experiment [2] (EphB4, Dissociation (135″), read-out: Absolute IC50) is 3020 nM; in experiment [2] (EphB4, Dissociation (135″), read-out: Relative IC50), 980 nM; in experiment [2] (EphB4, Full AUC, read-out: Absolute IC50) it was 1260 nM; in experiment [2] (EphB4, Full AUC, read-out: Relative IC50), 890 nM.
On to `Oc1c(I)cc(CN2CCOCC2)c2cccnc12` [Compound 8, 4-((8-hydroxy-7-iodoquinolin-1-ium-5-yl)methyl)morpholin-4-ium chloride], for which, in experiment [1], the “EphB1 Inhibition Percent, Inhibition of Association-Dissociation” value amounted to 53.2%.
In the case of `O=[N+]([O-])c1cc(CN2CCOCC2)c2cccnc2c1O` [Compound 9, 5-(morpholinomethyl)-7-nitroquinolin-8-ol], the “% Inhibition … (160 sec)” value in experiment [1] (EphB1, listed as A19-NO2 (A)) is 36.9% and 29.8%. In addition, in experiment [1] (association step, general), the “inhibition of EphB1-EphrinB2 binding” value was 25%. In addition, in experiment [1], the “EphB1 Inhibition Percent, Inhibition of Association ONLY” value was 22.5% and 16.1% and 15.7%; the “EphB1 Inhibition Percent, Inhibition of Association-Dissociation” value is 36.9% and 29.8% and 22.8%. Also, in experiment [2] (3.2 μM), the “less % inhibition activity toward EphrinB2-EphB4” value is given as “approximately 20 fold”. For the same compound, the “selectivity among EphrinB2-EphB1/B2/B4” value in experiment [2] (3.2 μM, listed as A19-NO2) is “selectively inhibit EphrinB2-EphB2 and EphrinB2-EphB1 interactions, while sparing most of the EphrinB2-EphB4 interaction; also recorded: less action towards EphB4 but high specificity for EphB1 and EphB2”. For the same compound, in experiment [2] (association step, general), the “inhibition of EphB4-EphrinB2 binding” value is given as 0%. Also, the “EphB4 Inhibition Percent, Inhibition of Association ONLY” value in experiment [2] is 0.6% and 0% and 8.2%.
Regarding `O=[N+]([O-])c1cc(CN2CCOCC2)c2cccnc2c1O` [Compound 10, 4-((8-hydroxy-7-nitroquinolin-1-ium-5-yl)methyl)morpholin-4-ium chloride], in experiment [1] (EphB1, listed as A19-NO2 (B)), the “% Inhibition … (160 sec)” value is on record as 14.2%. In addition, the “EphB1 Inhibition Percent, Inhibition of Association-Dissociation” value in experiment [1] is 23.1% and 14.2% and 20.2%. In addition, in experiment [2], the “EphB4 Inhibition Percent, Inhibition of Association ONLY” value was 0.1% and 0% and 4.1%; the “EphB4 Inhibition Percent, Inhibition of Association-Dissociation” value was 9.0% and 0% and 5.9%.
As for `OCc1ccc2c(CN3CCOCC3)cc(Br)c(O)c2n1` [Compound 13, 7-bromo-2-(hydroxymethyl)-5-(morpholinomethyl)quinolin-8-ol], the inhibition at 3.2 µM was determined as 29.1% in experiment [1] (setting [3]), 12.4% in experiment [1] (setting [4]), 7.6% in experiment [2] (setting [5]) and 0% in experiment [2] (setting [6]).
Consider `O=S1(=O)CCN(Cc2ccc(O)c3ncccc23)CC1` [Compound 15, 4-((8-hydroxyquinolin-1-ium-5-yl)methyl)thiomorpholin-4-ium 1,1-dioxide chloride], for which, in experiment [1], the “EphB1 Inhibition Percent, Inhibition of Association ONLY” value was 16.8% and the “EphB1 Inhibition Percent, Inhibition of Association-Dissociation” value is recorded as 28.6%. Also, in experiment [2], the “EphB4 Inhibition Percent, Inhibition of Association ONLY” value is recorded as 10.8% and the “EphB4 Inhibition Percent, Inhibition of Association-Dissociation” value stood at 19.0%.

In general, IC50 refers to the midpoint of a concentration-inhibition curve.
